Test results from patent US7208481B2, “Aminodiphosphonate apolipoprotein E modulators” (ILEX Products, Inc., priority 2002, dated 2007).
“Also recorded” adds a separate entry of the source.

Assays:
[1] = tested on: secretion of apoE by THP-1 cells; test: Secretion of apoE by THP-1 cells, apoE determined by ELISA; type: cell-based, human; conditions: reference compound for assay validation
Description: The THP-1 cell line was derived from the peripheral blood of a child with acute monocytic leukaemia and were obtained from the European Collection of Animal Cell Cultures (ECACC, #88081201). […] The cells were grown as non-adherent cells in RPMI 1640 culture medium, 2 mM glutamine, 20 μM 2-mercaptoethanol. Fresh medium was added to maintain cell density between 2 and 9×10^5 cells/ml. Once a week, new cultures were initiated by inoculating 10 ml of medium with 2×10^6 cells in a 75 cm^2 plate. The plates were kept at 37° C. in a 5% CO2 atmosphere. For screening, cells were seeded in 24-well plates at the density of 2×10^5 cells per well. Phorbol-12-myristat-13-acetate (PMA) was added at 0 and 5 nM to initiate TBP-1 differentiation into adherent macrophage-like cells. Vehicles, reference compounds and test compounds were added simultaneously at concentrations varying from 50 μM and incubated for 72 hours. […]
Ninety-six well-microtiter plates were coated by incubating with a 5% gelatin solution from porcine skin, bloom 60 in 50 mM carbonate-bicarbonate buffer, pH9.6 at the concentration of 200 μl/well, for 2 hours at 37° C. The coating solution was carefully removed and the sample to be analyzed was added (100 μl/well) at the appropriate dilution. […] The absorbance at 492 nm versus 620 nm was read on a microplate photometer and the results were then converted in human apoE ng equivalent. […]

[2] = tested on: rat plasma apoE; test: In vivo rat model: plasma apoE by ELISA after 5 days of oral treatment
Description: Rats fed a normal diet are a convenient model recently proposed for the screening of apoE modulating compounds (Leininger-Muller & Siest, 1996, herein incorporated by reference).
(§1) This model was validated by testing the hypocholesterolemic drug gemfibrozil (200 mg/kg) as reference compound.
(§2) […] Test compounds were given as a suspension in 20% Tween-80 supplemented with 0.5% carboxymethylcellulose. The control group received 1 ml vehicle alone. After a treatment period of 5 days, rats were weighed, sacrificed by decapitation under pentobarbital anesthesia after an overnight fast. Blood was collected on EDTA and plasma was used for analysis.
(§3) ApoE was quantified by an ELISA method using a goat anti-apolipoprotein E antibody. Briefly, a dilution to 1/200 of rat plasma was coated on microtiter plates. ApoE was recognized by the polyclonal antibody; the conjugate antibody (anti-goat IgG peroxidase) was then added for substrate biochemical recognition. Apolipoprotein E was expressed as % change from mean control value. Cholesterol was measured with a commercially available enzymatic kit. Results were expressed as % change from control group.

[3] = tested on: rat plasma HDLc; test: In vivo rat model: plasma HDL cholesterol after 5 days of oral treatment; conditions: for Rat Plasma HDLc (% change): dose-response experiment, OFA rats, Day 5
Description: as §1, §2, §3

[4] = OFA rats, 200 mg/kg/day p.o. for 5 days, change from mean control value
[5] = OFA rats, 50, 100, 200 mg/kg p.o. for 5 days
[6] = rats fed a normal diet, 200 mg/kg/day for 5 days

With CC1=C(/C=C/C(C)=C/C=C/C(C)=C/C(=O)O)C(C)(C)CCC1 [ATRA, all-trans retinoic acid, reference compound] the “production of apoE by THP-1 cells (effect in words)” value [1] was “decreased; also recorded: potent inhibitor”, the “plasma level of apoE in rats (effect in words)” value ([2]; rats, dose not given) was “decrease” and the “HDL cholesterol level in rats (effect in words)” value ([3]; rats, dose not given) was “decrease”.

With COP(=O)(OC)C(Nc1ccccn1)P(=O)(OC)OC [Compound 1, Tetramethyl N-(2-pyridyl)aminomethylenediphosphonate] the “Rat Plasma apoE (% change)” value [2, 4] was “+69 % change” and the melting point was 162 to 164 °C.

In the case of CCOP(=O)(OCC)C(Nc1ccccn1)P(=O)(OCC)OCC [Compound 2, Tetraethyl N-(2-pyridyl)aminomethylenediphosphonate], the “Rat Plasma apoE (% change)” value [2, 4] is reported as “+44 % change”, the “plasma apoE level, dose dependence (in words)” value [2, 5] is reported as “increased in a dose-response way” and the “Rat Plasma apoE (% change)” value ([2]; dose-response experiment, OFA rats, 50 mg/kg/day p.o. for 5 days, Day 5) is reported as “+38 % change”. The “Rat Plasma apoE (% change)” value ([2]; dose-response experiment, OFA rats, 100 mg/kg/day p.o. for 5 days, Day 5) was “+37 % change”, the “Rat Plasma apoE (% change)” value ([2]; dose-response experiment, OFA rats, 200 mg/kg/day p.o. for 5 days, Day 5) was “+62 % change” and the “plasma HDL cholesterol (HDLc) level, dose dependence (in words)” value [3, 5] was “increased in a dose-response way”. The “Rat Plasma HDLc (% change)” value ([3]; 50 mg/kg/day p.o. for 5 days) was “+27 % change”, the “Rat Plasma HDLc (% change)” value ([3]; 100 mg/kg/day p.o. for 5 days) was “+34 % change” and the “Rat Plasma HDLc (% change)” value ([3]; 200 mg/kg/day p.o. for 5 days) was “+68 % change”.

In the case of CC(C)OP(=O)(OC(C)C)C(Nc1ccccn1)P(=O)(OC(C)C)OC(C)C [Compound 3, Tetraisopropyl N-(2-pyridyl)aminomethylenediphosphonate], the “Rat Plasma apoE (% change)” value ([2]; po, 200 mg/kg/day, 120 h) is reported as “+16 % change” and the melting point is reported as 98 to 100 °C.

Compound CCOP(=O)(OCC)C(Nc1cnc2ccccc2c1)P(=O)(OCC)OCC [Compound 9, Tetraethyl N-(3-quinolinyl)aminomethylenediphosphonate] has a melting point of 156 to 158 °C.

In the case of Cc1ccc(C)c(OCCCC(C)(C)C(=O)O)c1 [gemfibrozil, reference compound], the “apoE increase in rats (model validation)” value [2, 6] is reported as “+75%” and the “HDL cholesterol increase in rats (model validation)” value [3, 6] is reported as “+42%”.
